Test results from PMC12216609, “Inhibitors of eIF1A-ribosome interaction unveil uORF-dependent regulation of translation initiation and antitumor and antiviral effects” (The EMBO Journal, 2025).
Where “and” joins values, the source holds several entries; their conditions need not be identical. Equal entries are not always repeated. Where two headings read alike, the source gives them in different places.

Experiments:
[1] = test system: IRF7 5'UTR firefly luciferase reporter in HEK293T cells; conditions: for Reference vs IRF7 (Final data, Fig. 1E): 1/Result, relative to DMSO; for LONG (summary - All), normalized to DMSO / SHORT (summary - All), normalized to DMSO: individual replicates, outliers excluded, DMSO = 1; for average ( long vs short ratio): summary - All;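 on all read-outs here: luciferase signal corrected by a co-transfected GFP reporter for transfection efficiency, read after overnight compound exposure, with Long and Short reporters differing in 5'UTR length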
eIF1A = target: T1, eIF1A (Homo sapiens, UniProt P47813); format: binding; conditions: for fluorescence ratio, eIF1A: background-corrected, relative to DMSO or lowest 1Ai concentration, replicate columns; for WT eIF1A IC50: fluorescence binding
T1 construct: His-bdSUMO (cleaved yes); made in house; host or cells: E. coli BL-21

[2] = test system: cap-proximal AUG GFP reporter in HEK293T cells; format: cell-based; conditions: GFP WB densitometry; 20 µM overnight; dmso 0.965946;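 further: ratio of upstream to downstream AUG initiation products on GFP Western blot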
NSP1 = NSP1 (Severe acute respiratory syndrome coronavirus 2, UniProt P0DTD1)
[3] = test system: CUG/GUG vs AUG start codon luciferase reporters in HEK293T cells; assay: Near-cognate AUG starting codon fidelity reporter assay (GUG, CUG vs AUG); format: cell-based; conditions: for CUG vs AUG (%): CUG start codon reporter relative to AUG reporter (AUG = 100); for CUG vs AUG (%) / GUG vs AUG (%): single-experiment calculation; for GUG vs AUG (%): GUG start codon reporter relative to AUG reporter (AUG = 100); for average CUG and GUG / average CUG and GUG relative to DMSO / CUG Average / GUG Average: NUG experiment; for CUG Average: CUG vs AUG reporter; for GUG Average: GUG vs AUG reporter; for NUG (Final data, Fig. 1E): average CUG and GUG relative to DMSO, 20 µM overnight; for GUG vs AUG data (%): individual repeat; for GUG vs AUG (%) Average: summary average of repeats, DMSO control average […]
RPS10 = target: T2, RPS10 (Homo sapiens, UniProt P46783); format: binding
T2 construct: made in house; host or cells: E. coli BL-21

[4] = eIF1A, from the titration data, read-out: IC50 (eIF1A titration block)
[5] = summary table, fluorescence binding assay
[6] = compound at 20uM (summary head)
[7] = read-out: IC50 (line under RPS10 binding data)
[8] = summary table, fluorescence binding assay, read-out: IC50 concentration (µM), RPS10

T1 sequence (P47813 whole entry): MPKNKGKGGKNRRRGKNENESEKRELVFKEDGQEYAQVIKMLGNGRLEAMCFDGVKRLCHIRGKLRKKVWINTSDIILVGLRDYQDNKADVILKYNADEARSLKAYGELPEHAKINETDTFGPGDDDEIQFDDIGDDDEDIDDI

## CCOC(=O)c1ccsc1NC(=O)CN1C(=O)NC(C)(c2cccc3ccccc23)C1=O (centres unmarked) [1Ai-1861]
[1]; 20 µM
  Reference vs IRF7 (Final data, Fig. 1E): 1.411
  average ( long vs short ratio): 0.709
[1]; Long reporter, 20 µM
  LONG (summary - All), normalized to DMSO: 0.0542 and 0.33 and 0.67 and 0.24
[1]; Short reporter, 20 µM
  SHORT (summary - All), normalized to DMSO: 0.28 and 0.35 and 0.52 and 0.68
eIF1A; 1Ai conc. 0.25 uM
  fluorescence ratio, eIF1A: 1.039 and 0.974
eIF1A; 1Ai conc. 0.5 uM
  fluorescence ratio, eIF1A: 1.136 and 0.9941
eIF1A; 1Ai conc. 1 uM
  fluorescence ratio, eIF1A: 1.143 and 0.9966
eIF1A; 1Ai conc. 2 uM
  fluorescence ratio, eIF1A: 1.167 and 0.9386
eIF1A; 1Ai conc. 4 uM
  fluorescence ratio, eIF1A: 1.169 and 0.9347
eIF1A; 1Ai conc. 8 uM
  fluorescence ratio, eIF1A: 1.065 and 0.8919
eIF1A; 1Ai conc. 16 uM
  fluorescence ratio, eIF1A: 1.1254 and 0.8973
eIF1A; 1Ai conc. 32 uM
  fluorescence ratio, eIF1A: 1.149 and 0.9563
eIF1A; 1Ai conc. 64 uM
  fluorescence ratio, eIF1A: 1.304 and 0.9843
eIF1A; 1Ai conc. 256 uM
  fluorescence ratio, eIF1A: 1.359 and 0.9897
eIF1A; [4]
  IC50: 71 µM
eIF1A
  WT eIF1A IC50: No binding
eIF1A; [5]
  IC50 concentration (µM), WT eIF1A: No binding
[2]
  US/DS ratio, average: 0.86
NSP1
  GFP reporter ratio nsp1/gfp, avg: 0.5997
  GFP reporter ratio nsp1/gfp, rep 1: 0.5997
  gfp signal, mean of duplicate wells: 311
  nsp1 signal, mean of duplicate wells: 186.5
  ratio (nsp1/gfp): 0.600
[3]; [6]
  CUG vs AUG (%): 14.0136%
  GUG vs AUG (%): 2.535%
[3]
  average CUG and GUG: 6.257
  average CUG and GUG relative to DMSO: 1.387
  CUG Average: 9.413
  GUG Average: 3.101
  NUG (Final data, Fig. 1E): 1.387
[3]; compound at 20uM
  GUG vs AUG data (%): 2.64% and 2.15% and 3.17% and 4.44%
  GUG vs AUG (%) Average: 3.10%
RPS10; 1Ai conc. 0.25 uM
  RPS10 fluorescence ratio to control: 1
RPS10; 1Ai conc. 0.5 uM
  RPS10 fluorescence ratio to control: 0.8226
RPS10; 1Ai conc. 1 uM
  RPS10 fluorescence ratio to control: 0.9775
RPS10; 1Ai conc. 2 uM
  RPS10 fluorescence ratio to control: 0.7185
RPS10; 1Ai conc. 4 uM
  RPS10 fluorescence ratio to control: 0.4957
RPS10; 1Ai conc. 8 uM
  RPS10 fluorescence ratio to control: 0.1947
RPS10; 1Ai conc. 16 uM
  RPS10 fluorescence ratio to control: 0.1506
RPS10; 1Ai conc. 32 uM
  RPS10 fluorescence ratio to control: 0.08052
RPS10; 1Ai conc. 64 uM
  RPS10 fluorescence ratio to control: 0.3768
RPS10; 1Ai conc. 256 uM
  RPS10 fluorescence ratio to control: 0.398
RPS10; [7]
  IC50: 3.7 µM
RPS10; read-out: RPS10 IC50
  IC50: 3.7 µM
RPS10; [8]
  IC50: 3.7 µM

## COc1cccc(Nc2nc(-c3ccc(NC(C)=O)cc3)c(C)s2)c1 [1Ai-1869]
[1]; 20 µM
  Reference vs IRF7 (Final data, Fig. 1E): 1.329
[1]; Long reporter, 5 µM
  LONG (summary - All), normalized to DMSO: 0.51 and 0.25 and 0.61
[1]; Short reporter, 5 µM
  SHORT (summary - All), normalized to DMSO: 0.54 and 0.69 and 0.59
[1]; data section, Short reporter, GFP-corrected, 5 µM, per experiment, includes values excluded as outliers
  Short: Normalized to average DMSO: 0.5397 and 0.69 and 0.5937
[1]; 5 µM
  average ( long vs short ratio): 0.752
eIF1A; 1Ai conc. 0.25 uM
  fluorescence ratio, eIF1A: 0.7968 and 0.7342
eIF1A; 1Ai conc. 0.5 uM
  fluorescence ratio, eIF1A: 0.8838 and 0.7405
eIF1A; 1Ai conc. 1 uM
  fluorescence ratio, eIF1A: 0.8128 and 0.72
eIF1A; 1Ai conc. 2 uM
  fluorescence ratio, eIF1A: 1.007 and 0.8137
eIF1A; 1Ai conc. 4 uM
  fluorescence ratio, eIF1A: 0.913 and 0.7844
eIF1A; 1Ai conc. 8 uM
  fluorescence ratio, eIF1A: 0.7676 and 0.6709
eIF1A; 1Ai conc. 16 uM
  fluorescence ratio, eIF1A: 0.6554 and 0.584
eIF1A; 1Ai conc. 32 uM
  fluorescence ratio, eIF1A: 0.5701 and 0.4814
eIF1A; 1Ai conc. 64 uM
  fluorescence ratio, eIF1A: 0.4848 and 0.4176
eIF1A; 1Ai conc. 256 uM
  fluorescence ratio, eIF1A: 0.3469 and 0.3333
eIF1A; [4]
  IC50: 20.4 µM
eIF1A; summary table, fluorescence binding assay, read-out: IC50 concentration (µM), WT eIF1A
  IC50: 20.4 µM
[2]
  US/DS ratio, average: 1.144
NSP1
  GFP reporter ratio nsp1/gfp, avg: 0.4109
  GFP reporter ratio nsp1/gfp, rep 1: 0.4212
  GFP reporter ratio nsp1/gfp, rep 2: 0.4006
  ratio (nsp1/gfp): 0.421 and 0.401 and 0.735
[3]; compound at 5uM (summary head)
  CUG vs AUG (%): 5.139%
  GUG vs AUG (%): 1.3841%
[3]
  average CUG and GUG: 3.262
  average CUG and GUG relative to DMSO: 0.7232
  CUG Average: 5.139
  GUG Average: 1.3841
  NUG (Final data, Fig. 1E): 0.723
[3]; compound at 5uM
  GUG vs AUG data (%): 2.01% and 1.38%
  GUG vs AUG (%) Average: 1.70%
RPS10; 1Ai conc. 0.25 uM
  RPS10 fluorescence ratio to control: 0.7198
RPS10; 1Ai conc. 0.5 uM
  RPS10 fluorescence ratio to control: 0.6885
RPS10; 1Ai conc. 1 uM
  RPS10 fluorescence ratio to control: 0.6476
RPS10; 1Ai conc. 2 uM
  RPS10 fluorescence ratio to control: 0.5996
RPS10; 1Ai conc. 4 uM
  RPS10 fluorescence ratio to control: 0.5488
RPS10; 1Ai conc. 8 uM
  RPS10 fluorescence ratio to control: 0.4668
RPS10; 1Ai conc. 16 uM
  RPS10 fluorescence ratio to control: 0.3725
RPS10; 1Ai conc. 32 uM
  RPS10 fluorescence ratio to control: 0.2785
RPS10; 1Ai conc. 64 uM
  RPS10 fluorescence ratio to control: 0.234
RPS10; 1Ai conc. 256 uM
  RPS10 fluorescence ratio to control: 0.2345
RPS10; [7]
  IC50: 7.7 µM
RPS10; read-out: RPS10 IC50
  IC50: 7.7 µM
RPS10; [8]
  IC50: 7.7 µM

## O=C(C=Cc1ccc(Cl)s1)Nc1cccc2ncccc12 [1Ai-4860]
[1]; 20 µM
  Reference vs IRF7 (Final data, Fig. 1E): 1.848
  average ( long vs short ratio): 0.541
[1]; Long reporter, 20 µM
  LONG (summary - All), normalized to DMSO: 0.47 and 0.69 and 0.42 and 0.61
[1]; Short reporter, 20 µM
  SHORT (summary - All), normalized to DMSO: 0.84 and 1.62 and 0.77
[1]; data section, Long reporter, GFP-corrected, 20 µM, per experiment, includes values excluded as outliers
  Long: Normalized to average DMSO: 0.471 and 0.6925 and 0.4245 and 0.6135
eIF1A; 1Ai conc. 0.25 uM
  fluorescence ratio, eIF1A: 1.378 and 0.7463
eIF1A; 1Ai conc. 0.5 uM
  fluorescence ratio, eIF1A: 1.41 and 0.8167
eIF1A; 1Ai conc. 1 uM
  fluorescence ratio, eIF1A: 1.444 and 0.7972
eIF1A; 1Ai conc. 2 uM
  fluorescence ratio, eIF1A: 1.487 and 1.19
eIF1A; 1Ai conc. 4 uM
  fluorescence ratio, eIF1A: 1.443 and 1.135
eIF1A; 1Ai conc. 8 uM
  fluorescence ratio, eIF1A: 0.951 and 1.007
eIF1A; 1Ai conc. 16 uM
  fluorescence ratio, eIF1A: 1.0935 and 0.6993
eIF1A; 1Ai conc. 32 uM
  fluorescence ratio, eIF1A: 1.055 and 0.7323
eIF1A; 1Ai conc. 64 uM
  fluorescence ratio, eIF1A: 1.155 and 0.874
eIF1A; 1Ai conc. 256 uM
  fluorescence ratio, eIF1A: 1.071 and 0.7793
eIF1A
  WT eIF1A IC50: No binding
eIF1A; [5]
  IC50 concentration (µM), WT eIF1A: No binding
[2]
  US/DS ratio, average: 1.03
NSP1
  GFP reporter ratio nsp1/gfp, avg: 0.4044
  GFP reporter ratio nsp1/gfp, rep 1: 0.428
  GFP reporter ratio nsp1/gfp, rep 2: 0.3807
  gfp signal, mean of duplicate wells: 2781.5 and 4263
  nsp1 signal, mean of duplicate wells: 1059 and 1824.5
  ratio (nsp1/gfp): 0.381 and 0.428
[3]; [6]
  CUG vs AUG (%): 3.6331%
  GUG vs AUG (%): 0.9953%
[3]
  average CUG and GUG: 2.314
  average CUG and GUG relative to DMSO: 0.5131
  CUG Average: 3.6331
  GUG Average: 0.9953
  NUG (Final data, Fig. 1E): 0.513
[3]; compound at 20uM
  GUG vs AUG data (%): 1.48% and 1.00%
  GUG vs AUG (%) Average: 1.24%
RPS10; 1Ai conc. 0.25 uM
  RPS10 fluorescence ratio to control: 0.9517
RPS10; 1Ai conc. 0.5 uM
  RPS10 fluorescence ratio to control: 0.9517
RPS10; 1Ai conc. 1 uM
  RPS10 fluorescence ratio to control: 0.8947
RPS10; 1Ai conc. 2 uM
  RPS10 fluorescence ratio to control: 0.9408
RPS10; 1Ai conc. 4 uM
  RPS10 fluorescence ratio to control: 0.8788
RPS10; 1Ai conc. 8 uM
  RPS10 fluorescence ratio to control: 0.814
RPS10; 1Ai conc. 16 uM
  RPS10 fluorescence ratio to control: 0.7263
RPS10; 1Ai conc. 32 uM
  RPS10 fluorescence ratio to control: 0.7395
RPS10; 1Ai conc. 64 uM
  RPS10 fluorescence ratio to control: 0.7335
RPS10; 1Ai conc. 256 uM
  RPS10 fluorescence ratio to control: 0.5649
RPS10; fluorescence binding
  RPS10 IC50: No binding
RPS10; [5]
  IC50 concentration (µM), RPS10: No binding
